One series deals with human fat cells. Briefly: isoprenaline-stimulated lipolysis (glycerol release) in human fat cells ex vivo. The format is cell-based. To be noted: compared with other genotypes. The source says:
For this purpose, human fat cells ex vivo were stimulated with isoprenaline and lipolysis quantified on the basis of glycerol release (Hauner H et al. Effects of the G protein beta3 subunit 825T allele on adipogenesis and lipolysis in cultured human preadipocytes and adipocytes. Horm Metab Res. 2002;34(9):475-80). […] This agrees with the observation of increased expression of Gαs protein in this genotype.
In fat cells from humans with the GG genotype, there is increased lipolysis, measured as the release of glycerol. […] This also agrees with the observation that persons with the GG genotype on a low calorie diet lose more weight than persons with the AA/AG genotype.

Series [1] is described as follows: metformin therapy for 12 months in women with PCOS: HOMA-IR index and BMI. Type of series: in vivo, human. Particulars: metformin 12 months. On the procedure:
Polycystic ovarian syndrome (PCOS) is a frequent endocrine disease, characterized by chronic anovulation and hyperandrogenism. About 5% of all premenopausal women are affected by this. […] Treatment of PCOS patients with metformin improves fertility and androgen levels, reduces insulin resistance and facilitates weight reduction. For this purpose, women with the PCOS syndrome were treated with metformin for 12 months. Changes in the Body Mass Index (BMI) and insulin resistance according to the HOMA-IR method (homeostasis model assessment for insulin resistance) were investigated, together with the GNAS genotypes of the T393C polymorphism. FIG. 22A shoes the influence of therapy with an oral antidiabetic(metformin) on insulin resistance(A) and Body Mass Index (BMI; B) in women with polycystic ovaries. As already mentioned, therapy was carried out with metformin for 12 months. The change in the HOMA-IR index is given as a measure of the insulin resistance. It is evident that the most marked improvement of the HOMA-IR index is in individuals with the CC genotype(2.9), in contrast to 2.2 with the TC genotype and only 0.9 with the TT genotype. […] The changes in the BMI (a measure of body fat) behave similarly. […] This includes not only metformin, but also the so-called glitazones, tolbutamide, sulfonylureas and their derivatives, glinides and arcabose.

Series [2] can be described thus: cardiovascular side-effects (heart rate, blood pressure) under therapy with sibutramine versus placebo. The format is in vivo, human. As for the experimental part:
(§1) In the context of a placebo-controlled, double blind study, obese patients were given 15 mg sibutramine/day for one year. Sibutramine is a centrally active re-uptake inhibitor of noradrenaline and serotonin, both of which act through G protein-coupled receptors. Sibutramine (trade-name: Reductil, Meridia) enhances the feeling of satiety and makes it easier to lose weight in the context of structured measures to reduce weight (increase in physical activity, reduction in calorie intake). The outcome parameter of the study was the weight loss after one year.
The connection between gene modifications in the GNAS gene and the change in heart rate was examined after treatment with sibutramine versus placebo (FIG. 25). The effects are illustrated as they depend on the T393C polymorphism. […] FIG. 26 makes clear the possible use of a gene modification in the human GNAS gene to predict the increase in diastolic blood pressure during treatment with sibutramine.
FIG. 27 illustrates once again the possible use of a gene modification in the human GNAS gene to predict an increase in the heart rate during therapy with sibutramine. This illustrates the effects, in dependence on genotypes of the G(-1211)A polymorphism. […] Finally, FIG. 28 illustrates the possibility of an additional use of a gene modification in the human GNAS gene in the prediction of an increase in systolic blood pressure during therapy with sibutramine.

Series [3] in a line: placebo-controlled, double blind study of sibutramine in obese patients: loss of weight after one year. Particulars: 15 mg/day for one year. The format is in vivo, human. On the procedure: as §1
The placebo or sibutramine (15 mg/day) were administered for one year. The loss of weight after one year (%) is illustrated, in dependence on the GNAS T393C genotype.
In addition, the study population was genotyped with respect to the GNAS G(-1211)A polymorphism (FIG. 19B). […] Placebo or sibutramine (15 mg/day) was administered for one year. The loss of weight (%) after one year is illustrated in dependence on the GNAS G(1211)A genotype. In the placebo group, patients with GNAS (-1211) GG genotype clearly could lose weight better(7.3%) than those with the AA- and AG genotype (1.8 and 3.1%, respectively). […] Thus therapy with sibutramine is predominantly indicated for patients with AG/AA genotype, whereas patients with CC genotype can also lose weight well under placebo. The time courses of the loss of weight for each genotype of the 393CT393C polymorphism (sibutramine versus placebo) are shown in FIGS. 20A, 20B and 20C. FIGS. 20 A, B and C illustrate the individual time courses for the changes in weight with placebo or sibutramine for the GNAS 393 CC genotype (A), the TC genotype (B) and the TT genotype (C). It is evident that only the TC and TT genotypes benefit from therapy with 15 mg sibutramine daily, whereas CC genotypes can lose weight without drug.

Each structure is given as a SMILES string.

As to `CC(C)NCC(O)c1ccc(O)c(O)c1` (stereo not shown) [isoprenaline], the “stimulation of lipolysis (glycerol release)” value with human fat cells (fat cells from humans with GNAS G(-1211)A GG genotype) and in the series on human fat cells (fat cells from individuals with GNAS 393 TT genotype) was “most marked stimulation of lipolysis” each time.

Regarding `CN(C)C(=N)N=C(N)N` [metformin], the “decrease in the BMI” value in series [1] (GNAS T393C CC genotype) is 15.8%; in series [1] (GNAS T393C TC genotype), 4.8%; in series [1] (GNAS T393C TT genotype), 1.5%. Also, the “improvement of the HOMA-IR index (insulin resistance)” value in series [1] (GNAS T393C CC genotype) came out at 2.9; in series [1] (GNAS T393C TC genotype), 2.2; in series [1] (GNAS T393C TT genotype), 0.9.

For the compound `CC(C)CC(N(C)C)C1(c2ccc(Cl)cc2)CCC1` (stereo not shown) [sibutramine], the “change in diastolic blood pressure during therapy with sibutramine” value in series [2] (GNAS 393 CC and TC genotypes) is given as “does not occur”; in series [2] (GNAS 393 TT genotype) it was “significant increase”. In series [2] (GNAS -1211 GG genotype), the “change in systolic blood pressure under therapy with sibutramine” value is given as “lack of reduction of the systolic blood pressure”. In addition, the “change in heart rate (sibutramine versus placebo)” value in series [2] (GNAS G(-1211)A GG genotype compared with AA/AG genotypes) is on record as “significantly greater change in heart rate”. Also, the “increase in heart rate with sibutramine versus placebo” value in series [2] (GNAS T393C CC genotype) is “This effect does not occur”; in series [2] (GNAS T393C TC genotype), 10 beats per minute; in series [2] (GNAS T393C TT genotype) it was 20 beats per minute. The “loss of weight after one year, sibutramine vs placebo” value in series [3] (GNAS G(-1211)A AG and AA genotype) is recorded as “marked (p=0.027) increase in the loss of weight”; in series [3] (GNAS G(-1211)A GG genotype), “favorable drug effect was not observed”; in series [3] (GNAS T393C CC genotype) it was “favorable drug effect was not observed”; in series [3] (GNAS T393C TC and TT genotype), “clear (p=0.027) increase in the loss of weight”.

For the origin of these results see patent US20060147936A1, “Use of a gene mutation in the human gnas gene for predicting risks of diseases, courses of the disease and for predicting the response to disease therapies” (priority 2003, published 2006).
